Structures can show the parent of a compound that is named as a salt. Where two headings read alike, the source gives them in different places.
Legend:
esterases = conditions: in the gut and blood; cited from earlier work
Safety [1] = type: in vivo, human; conditions: rifampin study, by treatment period
[2] = Phase 1 ethinyl estradiol/norethindrone interaction study: plasma PK; type: in vivo, human; conditions: for Geometric least-squares mean ratio, AUC0-∞ / Geometric least-squares mean ratio, AUClast / Geometric least-squares mean ratio, Cmax: (90% CI)
CYP3A4 = conditions: cited from earlier work
[3] = type: in vivo, human; conditions: ketoconazole + isavuconazole vs ketoconazole alone
Safety [4] = type: in vivo, human; conditions: ketoconazole study, by treatment period
[5] = type: in vivo, human
Safety [6] = type: in vivo, human; conditions: midazolam study, by treatment period
[7] = ethinyl estradiol, presence vs absence of isavuconazole
[8] = ethinyl estradiol: + isavuconazole vs alone
[9] = norethindrone, coadministration with isavuconazole vs alone
[10] = norethindrone: + isavuconazole vs alone
[11] = midazolam + isavuconazole vs midazolam alone, (90% CI)
[12] = midazolam, presence vs absence of isavuconazole

## CNCC(=O)OCc1cccnc1N(C)C(=O)OC(C)[n+]1cnn(C[C@](O)(c2cc(F)ccc2F)[C@@H](C)c2nc(-c3ccc(C#N)cc3)cs2)c1 (stereo partly shown) [isavuconazonium sulfate]
esterases
  hydrolysis of prodrug by esterases: rapid hydrolysis

## CO[C@H]1/C=C/O[C@@]2(C)Oc3c(C)c(O)c4c(O)c(c(/C=N/N5CCN(C)CC5)c(O)c4c3C2=O)NC(=O)/C(C)=C\C=C\[C@H](C)[C@H](O)[C@@H](C)[C@@H](O)[C@@H](C)[C@H](OC(C)=O)[C@@H]1C [Rifampin, rifampin, reference compound]
Safety [1]
  subjects who experienced TEAEs: 19 n
  subjects with drug-related TEAEs: 7 n

## C#C[C@]1(O)CC[C@H]2[C@@H]3CCc4cc(O)ccc4[C@H]3CC[C@@]21C [Ethinyl Estradiol, ethinyl estradiol]
[2]; [7]
  increase in mean AUC0-∞: 8%
  increase in mean AUClast: 10%
  increase in mean Cmax: 14%
[2]; [8]
  Geometric least-squares mean ratio, AUC0-∞: 108 (103, 113) %
  Geometric least-squares mean ratio, AUClast: 110 (104, 116) %
  Geometric least-squares mean ratio, Cmax: 114 (103, 126) %
[2]; female, human, plasma, po
  half-life: 20.5 h

## CCC(C)n1ncn(-c2ccc(N3CCN(c4ccc(OCC5COC(Cn6cncn6)(c6ccc(Cl)cc6Cl)O5)cc4)CC3)cc2)c1=O (stereo not shown) [itraconazole]
CYP3A4
  increase in exposure of midazolam on coadministration: up to 10 fold

## CC(=O)N1CCN(c2ccc(OCC3COC(Cn4ccnc4)(c4ccc(Cl)cc4Cl)O3)cc2)CC1 (stereo not shown) [Ketoconazole, ketoconazole, reference compound]
[3]; 90% CI 105, 134
  Geometric least-squares mean ratio, Cmax: 118%
[3]; 90% CI 112, 144
  Geometric least-squares mean ratio, AUCτ: 127%
Safety [4]
  subjects reporting TEAEs: no subjects

## C#C[C@]1(O)CC[C@H]2[C@@H]3CCC4=CC(=O)CC[C@@H]4[C@H]3CC[C@@]21C [Norethindrone, norethindrone]
[2]; female, human, plasma, po
  Tmax: 1 h
  half-life: 13.1 h
[2]; [9]
  increase in mean AUC0-∞: 16%
  increase in mean AUClast: 16%
  increase in mean Cmax: 6%
[2]; [10]
  Geometric least-squares mean ratio, AUC0-∞: 116 (109, 123) %
  Geometric least-squares mean ratio, AUClast: 116 (109, 123) %
  Geometric least-squares mean ratio, Cmax: 106 (93, 120) %

## Cc1ncc2n1-c1ccc(Cl)cc1C(c1ccccc1F)=NC2 [Midazolam, midazolam]
[5]; both, human, plasma, po, 3 mg
  AUC(0-inf): 46 ng·h/mL
  AUC(0-t): 44.5 ng·h/mL
  Cmax: 10.7 ng/mL
  Tmax: 1 h
  half-life: 5.4 h
[5]; midazolam 3 mg single oral dose alone, day 1, n = 23, arithmetic mean (SD)
  CL/F: 72.1 (24.6) L/h
[5]; [11]
  Geometric least-squares mean ratio, AUC0-∞: 203 (173, 238) %
  Geometric least-squares mean ratio, AUClast: 206 (175, 243) %
  Geometric least-squares mean ratio, Cmax: 172 (144, 205) %
[5]; [12]
  increase in mean AUC0-∞: 103%
  increase in mean AUClast: 106%
  increase in mean Cmax: 72%
Safety [6]
  subjects who experienced TEAEs: 9 n
  subjects with drug-related TEAEs: 6 n

## CC[C@@H]([C@H](C)O)n1ncn(-c2ccc(N3CCN(c4ccc(OC[C@@H]5CO[C@@](Cn6cncn6)(c6ccc(F)cc6F)C5)cc4)CC3)cc2)c1=O [posaconazole]
CYP3A4
  increase in exposure of midazolam on coadministration: up to 5 fold

From PMC5298035 (Clinical Pharmacology in Drug Development, 2016)
